Experimental data as given in patent US9949945B2, “3′ equatorial-fluorine-substituted neuraminidase inhibitor compounds, compositions and methods for the use thereof as anti-virals” (THE UNIVERSITY OF BRITISH COLUMBIA, priority 2012, dated 2018).
Read-outs that look alike come from different tables or passages of the source.

Columns and labels:
Assay type in all cases: biochemical
[1] = biological target: B/Florida E119D (B/Florida/4/2006 mutant 1 E117D) NA (Influenza B virus, UniProt J7JZT1, E117D)
[2] = biological target: A/Fukui H3N2 E119V (oseltamivir-resistant) NA (Influenza A virus, UniProt A0A0F6NYK2, E119V); conditions: read-out: IC50 in the enzyme inhibition assay, A/Fukui H3N2 E119V
[3] = biological target: Sol Isl sH1N1 E119A (A/Solomon Islands/3/2006 mutant) NA (Influenza A virus, UniProt B4URD9, E119A)
[4] = biological target: sH1N1/01 H275Y (A/Mississippi/3/01 oseltamivir-resistant) NA (Influenza A virus, UniProt Q3M0T6, H275Y)

Substance | IC50 [1] [nM] | IC50 [2] [nM] | IC50 [3] [nM] | IC50 ([4]; read-out: IC50 in the enzyme inhibition assay, A/Mississippi H1N1 H275Y) [nM] | IC50 ([4]; read-out: IC50 sH1N/01 H275Y) [nM]
Oseltamivir | 1200 | 260 | – | – | –
Zanamivir | – | – | > 10000 | 2.2 | 2.2
